For one assay, the target named is T1, p52 (Homo sapiens, UniProt Q00653).
T1 sequence (Q00653 1-454 limits assumed): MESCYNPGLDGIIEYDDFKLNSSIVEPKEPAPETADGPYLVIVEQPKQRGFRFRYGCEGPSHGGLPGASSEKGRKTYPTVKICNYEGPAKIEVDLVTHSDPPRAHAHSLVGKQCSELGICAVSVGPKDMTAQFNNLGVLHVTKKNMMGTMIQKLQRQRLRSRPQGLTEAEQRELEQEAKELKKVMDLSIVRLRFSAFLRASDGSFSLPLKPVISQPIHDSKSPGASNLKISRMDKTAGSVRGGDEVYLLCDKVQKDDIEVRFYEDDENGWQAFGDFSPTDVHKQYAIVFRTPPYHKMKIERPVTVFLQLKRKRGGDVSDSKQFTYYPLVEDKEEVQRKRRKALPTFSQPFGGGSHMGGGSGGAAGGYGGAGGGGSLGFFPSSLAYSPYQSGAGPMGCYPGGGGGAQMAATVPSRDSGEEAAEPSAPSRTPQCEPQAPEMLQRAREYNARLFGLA
The assay can be described thus: DSE-FRET p52–DNA binding inhibition. Type of assay: biochemical. Also noted: p52 Retest % Inhibition Run2 / p52 Retest % Inhibition Avg. / Kinetic assay p52 Inhibition % ΔRFU(60 min-0 min) / p52 HTS % Inhibition / p52 Retest % Inhibition Run1: dose or concentration left out as unconfirmed.

A further assay concerns the target RelA (Homo sapiens, UniProt Q04206). In words: DSE-FRET RelA–DNA binding inhibition. Type of assay: biochemical. Details: Kinetic assay RelA Inhibition % ΔRFU(60 min-0 min) / RelA HTS % Inhibition / RelA Retest % Inhibition Run1 / RelA Retest % Inhibition Run2 / RelA Retest % Inhibition Avg. / Kinetic assay RelA % Inhibition ΔRFU(60 min-0 min): dose or concentration left out as unconfirmed.

Setting [1] is: HTS, known drugs, 10 µM, read-out: p52 HTS % Inhibition @ 10 µM.
Where [2] appears, read: kinetic assay, 60 min-0 min, 10 µM, read-out: Kinetic assay @ 10 µM p52 % Inhibition ΔRFU(60 min-0 min).
Setting [3] is: retest of known drugs, 1 = judged hit.
The mark [4] stands for this setting: retest, Run1, 10 µM, read-out: p52 Retest % Inhibition @ 10 µM Run1.
Setting [5] is: retest, Run2, 10 µM, read-out: p52 Retest % Inhibition @ 10 µM Run2.
[6] abbreviates: retest, average of Run1 and Run2, 10 µM, read-out: p52 Retest % Inhibition @ 10 µM Avg.
Where [7] appears, read: HTS, known drugs, 10 µM, read-out: RelA HTS % Inhibition @ 10 µM.
[8] abbreviates: kinetic assay, 60 min-0 min, 10 µM, read-out: Kinetic assay @ 10 µM RelA % Inhibition ΔRFU(60 min-0 min).
[9] abbreviates: retest, Run1, 10 µM, read-out: RelA Retest % Inhibition @ 10 µM Run1.
Setting [10] is: retest, Run2, 10 µM, read-out: RelA Retest % Inhibition @ 10 µM Run2.
Setting [11] is: retest, average of Run1 and Run2, 10 µM, read-out: RelA Retest % Inhibition @ 10 µM Avg.
[12] abbreviates: Retest average of Run1 and Run2.
Setting [13] is: kinetic assay, ΔRFU 60 min-0 min.

Structures are written as SMILES. “And” between values parts separate entries of the source, which are not always exact repeats. Equal values may be shown once. Where a name gives a salt, the structure may show the parent alone. Read-outs that look alike come from different tables or passages of the source.

Sequence of RelA (Q04206 19-306 limits assumed): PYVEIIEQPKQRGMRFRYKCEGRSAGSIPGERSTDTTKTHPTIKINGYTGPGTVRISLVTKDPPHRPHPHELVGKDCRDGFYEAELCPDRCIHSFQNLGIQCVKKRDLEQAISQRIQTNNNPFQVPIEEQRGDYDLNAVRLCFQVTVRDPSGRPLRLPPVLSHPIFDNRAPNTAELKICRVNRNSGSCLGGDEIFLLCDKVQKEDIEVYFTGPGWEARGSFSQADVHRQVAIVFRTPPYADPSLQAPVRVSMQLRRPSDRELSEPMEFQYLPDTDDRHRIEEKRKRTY
Method for RelA: Plate-based (384 scale) DNA-binding experiments were carried out with 0.1 µL of 2 mM or 1 mg/mL compound, 2 µL of 80 nM NF-D1 (consisting of NF-01F and NF-14D), 1 µL of 20 ng/µL poly dI-dC, and 6.9 µL of 3.2 pmol protein in binding buffer (10 mM 4-(2-hydroxyethyl)-1-piperazineethanesulfonic acid (HEPES)–NaOH pH 7.9, 50 mM KCl, 0.1 mM ethylenediaminetetraacetic acid (EDTA), 2.5 mM dithiothreitol (DTT), 10% glycerol, and 0.05% Nonidet P40). The plates were incubated for 30 min at room temperature, after which 10 µL of NF-D2 (consisting of NF-02 and NF-13) was added. The plates were centrifuged at 1000 rpm for 30 s, followed by shaking for 30 s using a plate shaker (Biotec). Fluorescence was measured at 528 nm, after excitation at 485 nm, using a multiplate reader (Biotec) over a period of 60 min.

With `CC(C)(O/N=C(\C(=O)N[C@@H]1C(=O)N2C(C(=O)[O-])=C(C[n+]3ccccc3)CS[C@H]12)c1csc(N)n1)C(=O)O` [CEFTAZIDIME], the inhibition at 10 µM at p52 (setting [1]) was found to be 98%; on p52 (setting [2]), 92%; at p52 (setting [4]) it was 78.9%; on p52 (setting [5]) it was 110%; on p52 (setting [6]) it was 94.2%; at RelA (setting [7]) it was 96.9%. Further, the inhibition at 10 µM on RelA (setting [8]) was 94%; on RelA (setting [9]), 91.9%; at RelA (setting [10]) it was 106%; at RelA (setting [11]) it was 98.9%. Moreover, the “Hit Judgement of: p52” value on p52 (setting [3]) worked out at 1. The “Hit Judgement of: RelA” value on RelA (setting [3]) was 1.

In the case of `COc1cccc2c1C(=O)c1c(O)c3c(c(O)c1C2=O)C[C@@](O)(C(=O)CO)C[C@@H]3O[C@H]1C[C@H](N)[C@H](O)[C@H](C)O1` [Doxorubicin hydrochloride], the “Kinetic assay p52 % Inhibition ΔRFU(60 min-0 min)” value on p52 (kinetic assay, 60 min-0 min) is -15% and -17%. The “Kinetic assay RelA % Inhibition ΔRFU(60 min-0 min)” value on RelA (kinetic assay, 60 min-0 min) is -15%.

Consider `COc1cccc2c1C(=O)c1c(O)c3c(c(O)c1C2=O)C[C@@](O)(C(=O)CO)C[C@@H]3O[C@H]1C[C@H](N)[C@H](O)[C@H](C)O1` [DOXORUBICIN], for which the “Kinetic assay p52 % Inhibition ΔRFU(60 min-0 min)” value at p52 (kinetic assay, 60 min-0 min) is reported as -16%. At RelA (kinetic assay, 60 min-0 min), the “Kinetic assay RelA % Inhibition ΔRFU(60 min-0 min)” value was -14%.

As for `O=C1NC(=O)c2c1c1c3ccccc3[nH]c1c1[nH]c3ccccc3c21` [Arcyriaflavin A], at p52 (kinetic assay, 60 min-0 min), the “Kinetic assay p52 % Inhibition ΔRFU(60 min-0 min)” value is given as -3.54%. For the same compound, the “Kinetic assay RelA % Inhibition ΔRFU(60 min-0 min)” value at RelA (kinetic assay, 60 min-0 min) is -3.51%.

Take `COC(=O)[C@@H]1c2cc3c(c(O)c2[C@@H](O[C@@H]2O[C@@H](C)[C@H](OC)[C@@](C)(OC)[C@H]2OC)C[C@]1(C)O)C(=O)c1c(O)cc2c(c1C3=O)O[C@@H]1O[C@@]2(C)[C@H](O)[C@@H](N(C)C)[C@@H]1O` [Nogalamycin]: the inhibition at 5 µg/mL at p52 (HTS, 5 µg/mL, NPDepo hits, read-out: p52 HTS % Inhibition @ 5 µg/mL) is 127%; at p52 (Retest Run1, 5 µg/mL, read-out: p52 Retest % Inhibition @ 5 µg/mL Run1), 132%; at p52 (Retest Run2, 5 µg/mL, read-out: p52 Retest % Inhibition @ 5 µg/mL Run2) it was 145%; at p52 (Retest average of Run1 and Run2, 5 µg/mL, read-out: p52 Retest % Inhibition @ 5 µg/mL Avg.), 139%; at p52 (kinetic assay, 5 µg/mL, ΔRFU 60 min-0 min, read-out: Kinetic assay @ 5 µg/mL p52 Inhibition % ΔRFU(60 min-0 min)) it was -13%; at RelA (HTS, 5 µg/mL, NPDepo hits, read-out: RelA HTS % Inhibition @ 5 µg/mL), 128%. Moreover, the inhibition at 5 µg/mL at RelA (Retest Run1, 5 µg/mL, read-out: RelA Retest % Inhibition @ 5 µg/mL Run1) was 138%; on RelA (Retest Run2, 5 µg/mL, read-out: RelA Retest % Inhibition @ 5 µg/mL Run2) it was 146%; at RelA (Retest average of Run1 and Run2, 5 µg/mL, read-out: RelA Retest % Inhibition @ 5 µg/mL Avg.) it was 142%; at RelA (kinetic assay, 5 µg/mL, ΔRFU 60 min-0 min, read-out: Kinetic assay @ 5 µg/mL RelA Inhibition % ΔRFU(60 min-0 min)) it was -20%.

Turning to `Cl[C@H]1[C@H](Cl)[C@@H](Cl)[C@@H](Cl)[C@H](Cl)[C@H]1Cl` [LINDANE], the inhibition at 10 µM on p52 (setting [1]) is 31.4%; at p52 (setting [2]), -1.69%; on p52 (setting [4]) it was 5.5%; on p52 (setting [5]), 6.4%; at p52 (setting [6]), 5.9%; on RelA (setting [7]), 29.3%. Further, the inhibition at 10 µM at RelA (setting [8]) is -1.86%; on RelA (setting [9]), 6.1%; at RelA (setting [10]), 5.6%; on RelA (setting [11]), 5.9%.

For `O=C(O)CSCC(=O)N1CCn2c3c(c4cc(C5CCCCC5)ccc42)CCCC31` (stereo not shown), the “p52 HTS % Inhibition” value at p52 (HTS, NPDepo hits) is 19.2%. On p52 (Retest Run1), the “p52 Retest % Inhibition Run1” value was found to be 18.8%. The “p52 Retest % Inhibition Run2” value at p52 (Retest Run2) is on record as 22.6%. Moreover, the “p52 Retest % Inhibition Avg.” value on p52 (setting [12]) stood at 20.7%. In addition, the “Kinetic assay p52 Inhibition % ΔRFU(60 min-0 min)” value at p52 (setting [13]) is recorded as -3.52%. Besides, the “RelA HTS % Inhibition” value at RelA (HTS, NPDepo hits) is reported as 35.7%. For the same compound, the “RelA Retest % Inhibition Run1” value on RelA (Retest Run1) is 22.2%. Moreover, the “RelA Retest % Inhibition Run2” value at RelA (Retest Run2) was 23.7%. Besides, the “RelA Retest % Inhibition Avg.” value on RelA (setting [12]) is on record as 22.9%. Also, the “Kinetic assay RelA Inhibition % ΔRFU(60 min-0 min)” value on RelA (setting [13]) is -2.34%.

As to `CCN(CC)CCCC(C)Nc1c2ccc(Cl)cc2nc2ccc(OC)cc12` (stereo not shown) [QUINACRINE HYDROCHLORIDE], the inhibition at 10 µM is 70.9% at p52 (setting [1]); 60.7% at p52 (setting [4]); 69.7% at p52 (setting [5]); 65.2% on p52 (setting [6]); 56.7% at RelA (setting [7]); 60.6% at RelA (setting [9]). For the same compound, the inhibition at 10 µM was found to be 66.3% at RelA (setting [10]) and 63.5% on RelA (setting [11]). The “Kinetic assay p52 % Inhibition ΔRFU(60 min-0 min)” value at p52 (kinetic assay, 60 min-0 min) is recorded as -16%. The “Kinetic assay RelA % Inhibition ΔRFU(60 min-0 min)” value at RelA (kinetic assay, 60 min-0 min) was -18%.

For `O=C1Nc2ccc(I)cc2/C1=C/c1cc(Br)c(O)c(Br)c1` [GW 5074], the “Kinetic assay p52 % Inhibition ΔRFU(60 min-0 min)” value at p52 (kinetic assay, 60 min-0 min) was -18%. For the same compound, the “Kinetic assay RelA % Inhibition ΔRFU(60 min-0 min)” value at RelA (kinetic assay, 60 min-0 min) is listed as -17%.

In the case of `Cn1cc(C2=C(c3ccc(Cl)cc3Cl)C(=O)NC2=O)c2ccccc21` [SB 216763], the inhibition at 10 µM on p52 (setting [1]) is 18.6%; at p52 (setting [2]) it was -10%; at p52 (setting [4]) it was 64.6%; on p52 (setting [5]), 76.1%; on p52 (setting [6]), 70.3%; at RelA (setting [7]), 146%. Further, the inhibition at 10 µM was -12% at RelA (setting [8]), 73.3% on RelA (setting [9]), 82.1% on RelA (setting [10]) and 77.7% on RelA (setting [11]).

For `COc1cc2c(cc1OC)-c1cc3nc4ccccc4nc3n1C(C)(C)C2` [YM 90709], on p52 (kinetic assay, 60 min-0 min), the “Kinetic assay p52 % Inhibition ΔRFU(60 min-0 min)” value was -1.43%. The “Kinetic assay RelA % Inhibition ΔRFU(60 min-0 min)” value at RelA (kinetic assay, 60 min-0 min) is given as -3.67%.

As for `CC(C)(CO)[C@@H](O)C(=O)NCCCO` [DEXPANTHENOL], the inhibition at 10 µM is 241% on p52 (setting [1]); -1.23% at p52 (setting [2]); 207% on p52 (setting [4]); 231% at p52 (setting [5]); 219% on p52 (setting [6]); 242% at RelA (setting [7]). The inhibition at 10 µM at RelA (setting [8]) is -4.64%; at RelA (setting [9]), 226%; at RelA (setting [10]) it was 246%; at RelA (setting [11]), 236%.

For the compound `CCN1C(=O)C(=CC=C2Oc3ccccc3N2CCC(=O)O)N(C)C1=S`, the “p52 HTS % Inhibition” value at p52 (HTS, NPDepo hits) stood at 115.0%. The “Kinetic assay p52 Inhibition % ΔRFU(60 min-0 min)” value at p52 (setting [13]) is recorded as -27%. For the same compound, the “RelA HTS % Inhibition” value on RelA (HTS, NPDepo hits) is listed as 107.7%. The “Kinetic assay RelA Inhibition % ΔRFU(60 min-0 min)” value on RelA (setting [13]) was -18%.

For the compound `OCCN(CCO)c1nc(N2CCCCC2)c2nc(N(CCO)CCO)nc(N3CCCCC3)c2n1` [DIPYRIDAMOLE], the “Kinetic assay p52 % Inhibition ΔRFU(60 min-0 min)” value at p52 (kinetic assay, 60 min-0 min) is listed as -1.17%. The “Kinetic assay RelA % Inhibition ΔRFU(60 min-0 min)” value on RelA (kinetic assay, 60 min-0 min) is reported as -1.49%.

Source of the values: article PMC7734590, “Identification of a Selective RelA Inhibitor Based on DSE-FRET Screening Methods” (International Journal of Molecular Sciences, 2020).
